In PMC5613062 (Investigational New Drugs, 2017):
Where two headings read alike, the source gives them in different places. Marks after values point to notes of the source that are not given here.

Legend:
[1] = test system: Calu-6 human non-small cell lung cancer xenograft; parameters: method as in earlier work; settings: AZD6244 3 mg/kg BD; AZD2171 […] QD; ref IB; cited from earlier work
[2] = ref Study D1532C00005, cited from earlier work
[3] = cited from earlier work
[4] = parameters: method as in earlier work; settings: twice-daily oral dosing in SBE-CD, monkeys; no notable gastrointestinal tract or renal pathology; ref IB; cited from earlier work
[5] = parameters: method as in product label; settings: ref product label, cited from earlier work
[6] = test system: SW620 human colorectal cancer xenograft; parameters: method as in earlier work; settings: ref IB, cited from earlier work
[7] = test system: HCT-116 human colorectal cancer xenograft; parameters: method as in earlier work; settings: AZD6244 25 m/kg BD; docetaxel 15 mg/kg once weekly; ref IB; cited from earlier work
[8] = parameters: method as in product label; settings: ref product label, cited from earlier work; remark: listed apart in the source
[9] = Pharmacokinetics alone and in combination, selumetinib + erlotinib arm
Experimental: (§1) PK parameters were derived using non-compartmental analysis. Cmax and tmax were determined by visual inspection of the plasma concentration-time profiles. AUC(0–12) was calculated by the linear trapezoidal rule. Where more than one maximum occurred, the reported value was assigned to the first occurrence.

[10] = Pharmacokinetics alone and in combination, selumetinib + temsirolimus arm; assay type: in vivo, human; settings: human, plasma, iv; for AUC(0-t) / AUC(0–12) / Cmax: geometric mean (% CV); for AUC(0-t): read-out: AUC(0–8); for AUC(0–12): read-out: AUC(0–12); for Cmax: read-out: Cmax; for tmax: median (range), read-out: tmax
Experimental: as §1

[11] = test system: Lovo colorectal cancer xenograft; parameters: method as in earlier work; settings: rapamycin experiment, usual monotherapy schedules, doses not given; ref IB; cited from earlier work
[12] = AZD6244 25 mg/kg BD, irinotecan 25 mg/kg once weekly, docetaxel 15 mg/kg once weekly
[13] = NSCLC patients, single-agent erlotinib 150 mg
[14] = geometric mean, QD cohorts, dosed alone, selumetinib 150 mg cohort (N = 13), erlotinib 100 mg QD
[15] = dosed alone, selumetinib 50 mg cohort (N = 25), temsirolimus 25 mg IV
[16] = dosed alone, selumetinib 75 mg cohort (N = 6), temsirolimus 25 mg IV
[17] = dosed in combination, selumetinib 50 mg BID (N = 22) + temsirolimus 25 mg IV
[18] = dosed in combination, selumetinib 75 mg BID (N = 5) + temsirolimus 25 mg IV

COc1cc2c(Oc3ccc4[nH]c(C)cc4c3F)ncnc2cc1OCCCN1CCCC1 [AZD2171, reference compound]
Tumor growth inhibition as a % of control [1]: 49.6 % of control

Cn1cnc2c(F)c(Nc3ccc(Br)cc3Cl)c(C(=O)NOCCO)cc21 [AZD6244 Hyd-Sulfate]
DLT in the first 22 days of dosing ([2]; 75 mg BD cohort, one DLT): CTCAE Grade 3 fatigue
DLTs in the first 22 days of dosing ([2]; 100mg BD cohort, two DLTs): pleural effusion and rash (both CTC AE Grade 3)
maximum tolerated dose ([2]; capsule formulation): 75 mg BD
toxicity findings, 6-month study ([3]; male mice dosed 8–15 weeks at the high dose level, ref IB): dilation of the corpus spongiosum
tissue mineralization ([3]; mice dosed for up to one month, ref IB): multiple tissues (cornea, kidney, liver, myocardium, skeletal muscle, glandular stomach)
toxicity findings at non-tolerated dose levels ([3]; mouse, in vivo, po): gastrointestinal tract toxicity and hematopoietic atrophy
toxicity findings [4]: fluid and/or red colored feces

CC(=O)O[C@@]12CO[C@@H]1C[C@H](O)[C@@]1(C)C(=O)[C@H](O)C3=C(C)[C@@H](OC(=O)[C@H](O)[C@@H](NC(=O)OC(C)(C)C)c4ccccc4)C[C@@](O)([C@@H](OC(=O)c4ccccc4)[C@H]21)C3(C)C [Docetaxel]
severe neurosensory symptoms (paresthesia, dysesthesia, pain) ([5]; 53/965 metastatic breast cancer patients): 5.5%
treatment discontinuation due to severe neurosensory symptoms ([5]; metastatic breast cancer patients): 6.1%
Tumor growth inhibition as a % of control [6, 12]: 12 % of control
Tumor growth inhibition as a % of control [7]: 93.4 % of control

C#Cc1cccc(Nc2ncnc3cc(OCCOC)c(OCCOC)cc23)c1 [Erlotinib, reference compound]
Grade 3/4 diarrhea [8, 13]: 6%
Grade 3/4 rash [8, 13]: 9%
median time to onset of diarrhea [8, 13]: 12 days
median time to onset of rash [8, 13]: 8 days
patients needing dose reduction for diarrhea [8, 13]: 1%
patients needing dose reduction for rash [8, 13]: Six
study discontinuation due to diarrhea [8, 13]: 1%
study discontinuation due to rash [8, 13]: 1%
median time to start of ILD-like symptoms after initiating therapy ([8]; range 5 days to more than 9 months): 39 days
Cmax ([9]; geometric mean (% CV), dosed alone, selumetinib 50 mg cohort (N = 14), erlotinib 100 mg QD): 1681 (27.13) [13] ng/mL
Cmax ([9]; geometric mean (% CV), dosed in combination, selumetinib 50 mg BID (N = 12) + erlotinib 100 mg QD): 1725 (30.11) ng/mL
Cmax ([9]; geometric mean (% CV), dosed in combination, selumetinib 75 mg BID (N = 6) + erlotinib 100 mg QD): 1739 (39.86) ng/mL
Cmax ([9]; geometric mean, QD cohorts, dosed alone, selumetinib 100 mg cohort (N = 6), erlotinib 100 mg QD): 1180 ng/mL
AUC(0–8) [9, 14]: 12,710^c ng•h/mL
Cmax [9, 14]: 1980^c ng/mL
Cmax ([9]; geometric mean, QD cohorts, in combination, selumetinib 50 mg (N = 6) + erlotinib 100 mg QD): 1468^d ng/mL
tmax ([9]; human, plasma, oral): 1.5 h
tmax ([9]; human, plasma, oral, 100 mg): 1.5 h
AUC(0-t) ([9]; human, plasma, oral, 100 mg, AUC(0–8), geometric mean, QD cohorts, dosed alone, selumetinib 100 mg cohort (N = 6), erlotinib 100 mg QD): 7100 ng·h/mL
AUC(0-t) ([9]; human, plasma, oral, 100 mg, AUC(0–12), geometric mean, QD cohorts, dosed alone, selumetinib 100 mg cohort (N = 6), erlotinib 100 mg QD): 10300 ng·h/mL
AUC(0-t) ([9]; human, plasma, oral, AUC(0–8), geometric mean (% CV), dosed alone, selumetinib 50 mg cohort (N = 14), erlotinib 100 mg QD): 10100 ng·h/mL
AUC(0-t) ([9]; human, plasma, oral, AUC(0–8), geometric mean (% CV), dosed alone, selumetinib 75 mg cohort (N = 6), erlotinib 100 mg QD): 9590 ng·h/mL
AUC(0-t) ([9]; human, plasma, oral, AUC(0–8), geometric mean (% CV), dosed in combination, selumetinib 50 mg BID (N = 12) + erlotinib 100 mg QD): 10400 ng·h/mL
AUC(0-t) ([9]; human, plasma, oral, AUC(0–8), geometric mean (% CV), dosed in combination, selumetinib 75 mg BID (N = 6) + erlotinib 100 mg QD): 10400 ng·h/mL
AUC(0-t) ([9]; human, plasma, oral, AUC(0–8), geometric mean, QD cohorts, dosed alone, selumetinib 50 mg cohort (N = 7), erlotinib 100 mg QD): 9620 ng·h/mL
AUC(0-t) ([9]; human, plasma, oral, AUC(0–8), geometric mean, QD cohorts, in combination, selumetinib 50 mg (N = 6) + erlotinib 100 mg QD): 8600 ng·h/mL
AUC(0-t) ([9]; human, plasma, oral, AUC(0–8), geometric mean, QD cohorts, in combination, selumetinib 100 mg (N = 6) + erlotinib 100 mg QD): 8500 ng·h/mL
AUC(0-t) ([9]; human, plasma, oral, AUC(0–8), geometric mean, QD cohorts, in combination, selumetinib 150 mg (N = 12) + erlotinib 100 mg QD): 13000 ng·h/mL
AUC(0-t) ([9]; human, plasma, oral, AUC(0–12), geometric mean (% CV), dosed alone, selumetinib 50 mg cohort (N = 14), erlotinib 100 mg QD): 14500 ng·h/mL
AUC(0-t) ([9]; human, plasma, oral, AUC(0–12), geometric mean (% CV), dosed alone, selumetinib 75 mg cohort (N = 6), erlotinib 100 mg QD): 13800 ng·h/mL
AUC(0-t) ([9]; human, plasma, oral, AUC(0–12), geometric mean (% CV), dosed in combination, selumetinib 50 mg BID (N = 12) + erlotinib 100 mg QD): 14700 ng·h/mL
AUC(0-t) ([9]; human, plasma, oral, AUC(0–12), geometric mean (% CV), dosed in combination, selumetinib 75 mg BID (N = 6) + erlotinib 100 mg QD): 14700 ng·h/mL
AUC(0-t) ([9]; human, plasma, oral, AUC(0–12), geometric mean, QD cohorts, dosed alone, selumetinib 50 mg cohort (N = 7), erlotinib 100 mg QD): 14000 ng·h/mL
AUC(0-t) ([9]; human, plasma, oral, AUC(0–12), geometric mean, QD cohorts, dosed alone, selumetinib 150 mg cohort (N = 13), erlotinib 100 mg QD): 18300 ng·h/mL
AUC(0-t) ([9]; human, plasma, oral, AUC(0–12), geometric mean, QD cohorts, in combination, selumetinib 100 mg (N = 6) + erlotinib 100 mg QD): 12000 ng·h/mL
AUC(0-t) ([9]; human, plasma, oral, AUC(0–12), geometric mean, QD cohorts, in combination, selumetinib 150 mg (N = 12) + erlotinib 100 mg QD): 18600 ng·h/mL
Cmax ([9]; human, plasma, oral, Cmax, geometric mean (% CV), dosed alone, selumetinib 75 mg cohort (N = 6), erlotinib 100 mg QD): 1420 ng/mL
Cmax ([9]; human, plasma, oral, Cmax, geometric mean, QD cohorts, dosed alone, selumetinib 50 mg cohort (N = 7), erlotinib 100 mg QD): 1620 ng/mL
Cmax ([9]; human, plasma, oral, Cmax, geometric mean, QD cohorts, in combination, selumetinib 100 mg (N = 6) + erlotinib 100 mg QD): 1430 ng/mL
Cmax ([9]; human, plasma, oral, Cmax, geometric mean, QD cohorts, in combination, selumetinib 150 mg (N = 12) + erlotinib 100 mg QD): 2030 ng/mL
tmax ([9]; median (range), QD cohorts, dosed alone, selumetinib 150 mg cohort (N = 13), erlotinib 100 mg QD): 2.00 (1.00–6.00)^c h
tmax ([9]; median (range), QD cohorts, in combination, selumetinib 50 mg (N = 6) + erlotinib 100 mg QD): 4.00 (1.00–8.00)^d h
tmax ([9]; median (range), dosed alone, selumetinib 75 mg cohort (N = 6), erlotinib 100 mg QD): 3.0 (2.0–6.0) h
PK parameters when administered alone and in combination ([9]; selumetinib + erlotinib arm): similar

CCc1c2c(nc3ccc(OC(=O)N4CCC(N5CCCCC5)CC4)cc13)-c1cc3c(c(=O)n1C2)COC(=O)[C@]3(O)CC [Irinotecan]
Tumor growth inhibition as a % of control [6, 12]: 67 % of control

CO[C@H]1C[C@@H]2CC[C@@H](C)[C@@](O)(O2)C(=O)C(=O)N2CCCC[C@H]2C(=O)O[C@H]([C@H](C)C[C@@H]2CC[C@@H](O)[C@H](OC)C2)CC(=O)[C@H](C)/C=C(\C)[C@@H](O)[C@@H](OC)C(=O)[C@H](C)C[C@H](C)/C=C/C=C/C=C/1C [Sirolimus]
AUC(0-t) [10, 15]: 341 ng·h/mL
AUC(0–12) [10, 15]: 514 ng·h/mL
Cmax [10, 15]: 58.5 ng/mL
AUC(0-t) [10, 16]: 266 ng·h/mL
AUC(0–12) [10, 16]: 382 ng·h/mL
Cmax [10, 16]: 49.5 ng/mL
AUC(0-t) [10, 17]: 394 ng·h/mL
AUC(0–12) [10, 17]: 584 ng·h/mL
Cmax [10, 17]: 67 ng/mL
AUC(0-t) [10, 18]: 292 ng·h/mL
AUC(0–12) [10, 18]: 360 ng·h/mL
Cmax [10, 18]: 51.2 ng/mL
tmax [10, 15]: 1.5 h
tmax [10, 16]: 2 h
tmax [10, 17]: 1.5 h
tmax [10, 18]: 2 h
Tumor growth inhibition as a % of control [11]: 38 % of control

Cn1nnc2c(C(N)=O)ncn2c1=O [Temozolamide]
Tumor growth inhibition as a % of control ([6]; temozolamide experiment, usual monotherapy schedules, doses not given): 15 % of control
